Where two headings read alike, the source gives them in different places.
Experiments:
CYP2B6 = target: T1, CYP2B6 (Homo sapiens, UniProt P20813); test: Inhibition of recombinant CYP2B6 (probe bupropion); format: in vitro ADME
T1 sequence (P20813 1-491): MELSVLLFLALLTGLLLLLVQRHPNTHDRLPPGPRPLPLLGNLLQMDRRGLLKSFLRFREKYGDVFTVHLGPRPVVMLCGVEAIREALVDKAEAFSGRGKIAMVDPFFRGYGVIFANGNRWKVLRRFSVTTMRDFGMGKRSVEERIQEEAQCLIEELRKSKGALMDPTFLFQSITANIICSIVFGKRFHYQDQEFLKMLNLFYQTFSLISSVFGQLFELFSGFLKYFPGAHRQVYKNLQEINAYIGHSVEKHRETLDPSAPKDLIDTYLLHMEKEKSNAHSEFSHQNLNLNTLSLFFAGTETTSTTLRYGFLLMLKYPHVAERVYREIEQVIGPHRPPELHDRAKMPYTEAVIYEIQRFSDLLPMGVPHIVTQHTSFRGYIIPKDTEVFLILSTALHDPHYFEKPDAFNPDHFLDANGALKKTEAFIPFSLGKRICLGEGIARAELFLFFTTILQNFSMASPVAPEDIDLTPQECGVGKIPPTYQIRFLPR
Description: (§1) In this study, phenacetin (100 μM), coumarin (100 μM), bupropion (100 μM), paclitaxel (60 μM), tolbutamide (200 μM), mephenytoin (100 μM), chlorzoxazone (200 μM) and nifedipine (40 μM) have been used as the probe substrates for CYP1A2, 2A6, 2B6, 2C8, 2C9, 2C19, 2E1 and 3A4, respectively.

CYP2C8 = target: T2, CYP2C8 (Homo sapiens, UniProt P10632); test: Inhibition of recombinant CYP2C8 (probe paclitaxel); format: in vitro ADME
T2 sequence (P10632 1-490): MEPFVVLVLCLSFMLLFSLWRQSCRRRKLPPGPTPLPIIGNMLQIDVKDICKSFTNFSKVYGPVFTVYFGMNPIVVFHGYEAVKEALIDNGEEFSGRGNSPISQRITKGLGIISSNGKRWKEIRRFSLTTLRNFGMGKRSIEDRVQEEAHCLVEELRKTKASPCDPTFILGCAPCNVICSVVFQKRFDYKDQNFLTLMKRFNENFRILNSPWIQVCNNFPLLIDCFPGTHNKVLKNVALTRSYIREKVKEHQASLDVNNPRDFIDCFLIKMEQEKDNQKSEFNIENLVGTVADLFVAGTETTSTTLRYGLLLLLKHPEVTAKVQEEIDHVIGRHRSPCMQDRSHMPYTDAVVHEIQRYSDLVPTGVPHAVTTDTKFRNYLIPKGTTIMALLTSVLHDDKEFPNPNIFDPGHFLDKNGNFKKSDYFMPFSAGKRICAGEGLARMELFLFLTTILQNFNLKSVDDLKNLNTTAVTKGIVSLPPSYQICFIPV
Description: as §1

CYP2E1 = CYP2E1 (Homo sapiens, UniProt P05181); test: Inhibition of recombinant CYP2E1 (probe chlorzoxazone)
Description: Phase I incubation system (100 μL) contained Tris–HCl buffer (50 mM, pH = 7.4), MgCl2 (5 mM), each CYP isozyme, specific substrates, circulating compounds and NADPH (1 mM) as prescribed previously. After incubation (37 °C, 60 min), the reaction was terminated by ice-cold acetonitrile (100 μL), following by centrifugation at 13,800g for 10 min. The supernatant (8 μL) was acquired for ultra-high-performance liquid chromatography (UHPLC) system (Waters, Manchester, UK) analysis.
After optimization of incubation conditions (Additional file 1: Fig. S1), the substrates were incubated with each CYP isozyme at different protein concentrations (0.05 mg/mL for CYP1A2 and 3A4; 0.1 mg/mL for CYP2A6, 2B6, 2C8, 2C9, 2C19 and 2E1) in the absence (control) and presence of different mixture or herbal compounds (Kang-Ai injection and samples that Kang-Ai injection was diluted 10 times; 1, 10, and 100 μM for matrine and oxymatrine; 0.1, 1, 10 and 100 μM for astragalosides and ginsenosides).
The half-inhibition concentration (IC50) values were determined by non-linear regression analysis. […] The inhibition mechanism towards corresponding CYP and UGT isoforms were further explored.
The inhibition constant (Ki) values were obtained by multiple concentrations of substrates in the absence or presence of multiple concentrations of herbal compounds as described previously. […] (1)–(3), respectively. The model with the smallest Akaike information criterion (AIC) and Schwartz information criterion (SC) values was considered as the best model, following the obtained appropriate Ki values. Model fitting and parameter estimation were performed using Graphpad Prism V5 software (SanDiego, CA).

[1] = Stability tests of analytes in rat plasma QC samples; format: in vitro ADME
Description: […] The dilution integrity was investigated by analyzing six replicate samples with each analyte, and each analyte were diluted 10-fold with blank rat matrix. Furthermore, the diluted samples were analyzed using freshly prepared calibration curve to calculate RE and RSD, which should be no more than ± 15% as criterion.

[2] = recombinant isozyme, mean ± SD of triplicate, unit not given (IC50 classes in μM), read-out: IC50 towards CYP2B6
[3] = recombinant isozyme, mean ± SD of triplicate, unit not given (IC50 classes in μM), read-out: IC50 towards CYP2C8
[4] = rat plasma, nominal conc. 20 nM
[5] = rat plasma, nominal conc. 100 nM
[6] = rat plasma, nominal conc. 400 nM
[7] = rat plasma, nominal conc. 40 nM
[8] = rat plasma, nominal conc. 200 nM
[9] = rat plasma, nominal conc. 800 nM

Sequence of CYP2E1 (P05181 whole entry): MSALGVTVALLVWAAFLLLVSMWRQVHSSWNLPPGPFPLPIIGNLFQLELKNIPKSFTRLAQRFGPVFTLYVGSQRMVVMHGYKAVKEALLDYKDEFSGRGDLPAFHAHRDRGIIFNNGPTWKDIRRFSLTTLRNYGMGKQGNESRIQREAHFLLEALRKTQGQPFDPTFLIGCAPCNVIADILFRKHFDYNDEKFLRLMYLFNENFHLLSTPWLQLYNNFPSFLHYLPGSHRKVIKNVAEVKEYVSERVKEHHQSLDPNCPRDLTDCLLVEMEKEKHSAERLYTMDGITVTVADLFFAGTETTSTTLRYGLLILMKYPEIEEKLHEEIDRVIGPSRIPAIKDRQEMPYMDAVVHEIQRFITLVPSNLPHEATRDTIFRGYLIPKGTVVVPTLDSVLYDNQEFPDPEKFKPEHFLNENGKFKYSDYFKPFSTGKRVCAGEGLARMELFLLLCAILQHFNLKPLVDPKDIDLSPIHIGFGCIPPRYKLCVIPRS

CC(C)=CCC[C@](C)(O[C@@H]1O[C@H](CO[C@@H]2O[C@@H](CO)[C@H](O)[C@H]2O)[C@@H](O)[C@H](O)[C@H]1O)[C@H]1CC[C@]2(C)[C@@H]1[C@H](O)C[C@@H]1[C@@]3(C)CC[C@H](O[C@@H]4O[C@H](CO)[C@@H](O)[C@H](O)[C@H]4O[C@@H]4O[C@H](CO)[C@@H](O)[C@H](O)[C@H]4O)C(C)(C)[C@@H]3CC[C@]12C [Compound D3, Ginsenoside Rc]
IC50 (CYP2B6; [2]): > 100 µM | IC50 (CYP2C8; [3]): > 100 µM | IC50 (CYP2E1): > 100 µM | At -80 °C for 48 h, Mean±SD [1, 4]: 21.79 ± 0.54 nM | At -80 °C for 48 h, RE [1, 4]: 11.90% | Extracted samples at 8 °C for 18 h, Mean±SD [1, 4]: 21.26 ± 0.64 nM | Extracted samples at 8 °C for 18 h, RE [1, 4]: 9.82% | Short-term stability at room temperature for 6 h, Mean±SD [1, 4]: 21.00 ± 1.54 nM | Short-term stability at room temperature for 6 h, RE [1, 4]: 10.56% | Three freeze-thaw cycles (-80 °C ↔ 23 °C), Mean±SD [1, 4]: 22.31 ± 0.31 nM | Three freeze-thaw cycles (-80 °C ↔ 23 °C), RE [1, 4]: 12.70% | At -80 °C for 48 h, Mean±SD [1, 5]: 92.14 ± 3.15 nM | At -80 °C for 48 h, RE [1, 5]: -10.73% | Extracted samples at 8 °C for 18 h, Mean±SD [1, 5]: 91.90 ± 3.48 nM | Extracted samples at 8 °C for 18 h, RE [1, 5]: -12.09% | Short-term stability at room temperature for 6 h, RE [1, 5]: -13.45% | Three freeze-thaw cycles (-80 °C ↔ 23 °C), Mean±SD [1, 5]: 107.11 ± 6.52 nM | Three freeze-thaw cycles (-80 °C ↔ 23 °C), RE [1, 5]: 11.88% | At -80 °C for 48 h, Mean±SD [1, 6]: 421.69 ± 7.21 nM | At -80 °C for 48 h, RE [1, 6]: 7.06% | Extracted samples at 8 °C for 18 h, Mean±SD [1, 6]: 432.26 ± 28.61 nM | Extracted samples at 8 °C for 18 h, RE [1, 6]: 12.97% | Short-term stability at room temperature for 6 h, Mean±SD [1, 6]: 366.80 ± 3.85 nM | Short-term stability at room temperature for 6 h, RE [1, 6]: -9.03% | Three freeze-thaw cycles (-80 °C ↔ 23 °C), Mean±SD [1, 6]: 413.15 ± 9.39 nM | Three freeze-thaw cycles (-80 °C ↔ 23 °C), RE [1, 6]: 5.12% | Short-term stability at room temperature for 6 h, Mean±SD ([1]; rat, 6 h, 100 nM): 94.62 ± 9.91 nM

CC(C)=CCC[C@](C)(O[C@@H]1O[C@H](CO)[C@@H](O)[C@H](O)[C@H]1O)[C@H]1CC[C@]2(C)[C@@H]1[C@H](O)C[C@@H]1[C@@]3(C)CC[C@H](O)C(C)(C)[C@@H]3[C@@H](O[C@@H]3O[C@H](CO)[C@@H](O)[C@H](O)[C@H]3O)C[C@]12C [Compound C6, Ginsenoside Rg1]
IC50 (CYP2B6; [2]): > 100 µM | IC50 (CYP2C8; [3]): > 100 µM | IC50 (CYP2E1): > 100 µM | At -80 °C for 48 h, Mean±SD [1, 7]: 37.29 ± 1.37 nM | At -80 °C for 48 h, RE [1, 7]: -10.20% | Extracted samples at 8 °C for 18 h, Mean±SD [1, 7]: 35.69 ± 0.56 nM | Extracted samples at 8 °C for 18 h, RE [1, 7]: -12.18% | Short-term stability at room temperature for 6 h, Mean±SD [1, 7]: 38.60 ± 1.14 nM | Short-term stability at room temperature for 6 h, RE [1, 7]: -6.74% | Three freeze-thaw cycles (-80 °C ↔ 23 °C), Mean±SD [1, 7]: 39.64 ± 2.41 nM | Three freeze-thaw cycles (-80 °C ↔ 23 °C), RE [1, 7]: -7.72% | At -80 °C for 48 h, Mean±SD [1, 8]: 209.85 ± 12.74 nM | At -80 °C for 48 h, RE [1, 8]: 10.34% | Extracted samples at 8 °C for 18 h, Mean±SD [1, 8]: 197.72 ± 17.37 nM | Extracted samples at 8 °C for 18 h, RE [1, 8]: 8.81% | Short-term stability at room temperature for 6 h, Mean±SD [1, 8]: 204.22 ± 5.64 nM | Short-term stability at room temperature for 6 h, RE [1, 8]: 4.83% | Three freeze-thaw cycles (-80 °C ↔ 23 °C), Mean±SD [1, 8]: 189.03 ± 9.20 nM | Three freeze-thaw cycles (-80 °C ↔ 23 °C), RE [1, 8]: -10.01% | At -80 °C for 48 h, Mean±SD [1, 9]: 800.01 ± 77.30 nM | At -80 °C for 48 h, RE [1, 9]: 11.14% | Extracted samples at 8 °C for 18 h, Mean±SD [1, 9]: 826.40 ± 51.24 nM | Extracted samples at 8 °C for 18 h, RE [1, 9]: 10.42% | Short-term stability at room temperature for 6 h, Mean±SD [1, 9]: 737.30 ± 34.89 nM | Short-term stability at room temperature for 6 h, RE [1, 9]: -11.11% | Three freeze-thaw cycles (-80 °C ↔ 23 °C), Mean±SD [1, 9]: 739.78 ± 39.17 nM | Three freeze-thaw cycles (-80 °C ↔ 23 °C), RE [1, 9]: -11.08%

O=C1CCC[C@@H]2[C@H]3CCCN4CCC[C@@H](CN12)[C@@H]34 [Compound A1, Matrine]
IC50 (CYP2B6): > 100 µM | IC50 (CYP2C8): > 100 µM | IC50 (CYP2E1): > 100 µM | At -80 °C for 48 h, Mean±SD [1, 4]: 21.33 ± 1.64 nM | At -80 °C for 48 h, RE [1, 4]: 10.69% | Extracted samples at 8 °C for 18 h, Mean±SD [1, 4]: 21.75 ± 0.99 nM | Extracted samples at 8 °C for 18 h, RE [1, 4]: 13.23% | Short-term stability at room temperature for 6 h, Mean±SD [1, 4]: 20.84 ± 0.75 nM | Short-term stability at room temperature for 6 h, RE [1, 4]: 8.05% | Three freeze-thaw cycles (-80 °C ↔ 23 °C), Mean±SD [1, 4]: 20.11 ± 1.97 nM | Three freeze-thaw cycles (-80 °C ↔ 23 °C), RE [1, 4]: -9.75% | At -80 °C for 48 h, Mean±SD [1, 5]: 106.76 ± 6.22 nM | At -80 °C for 48 h, RE [1, 5]: 13.15% | Extracted samples at 8 °C for 18 h, Mean±SD [1, 5]: 95.18 ± 2.64 nM | Extracted samples at 8 °C for 18 h, RE [1, 5]: -7.17% | Short-term stability at room temperature for 6 h, Mean±SD [1, 5]: 100.30 ± 2.84 nM | Short-term stability at room temperature for 6 h, RE [1, 5]: 3.05% | Three freeze-thaw cycles (-80 °C ↔ 23 °C), Mean±SD [1, 5]: 104.44 ± 12.01 nM | Three freeze-thaw cycles (-80 °C ↔ 23 °C), RE [1, 5]: 14.16% | At -80 °C for 48 h, Mean±SD [1, 6]: 394.46 ± 17.47 nM | At -80 °C for 48 h, RE [1, 6]: -6.06% | Extracted samples at 8 °C for 18 h, Mean±SD [1, 6]: 402.13 ± 26.43 nM | Extracted samples at 8 °C for 18 h, RE [1, 6]: 7.87% | Short-term stability at room temperature for 6 h, Mean±SD [1, 6]: 420.24 ± 21.99 nM | Short-term stability at room temperature for 6 h, RE [1, 6]: 11.33% | Three freeze-thaw cycles (-80 °C ↔ 23 °C), Mean±SD [1, 6]: 415.19 ± 9.89 nM | Three freeze-thaw cycles (-80 °C ↔ 23 °C), RE [1, 6]: 5.94%

— paper PMC7339578, “Multiple circulating alkaloids and saponins from intravenous Kang-Ai injection inhibit human cytochrome P450 and UDP-glucuronosyltransferase isozymes: potential drug–drug interactions” (Chinese Medicine, 2020)
